Test results as given in ChEMBL document CHEMBL3745672, “Novel compounds reducing IRS-1 serine phosphorylation for treatment of diabetes” (Bioorg Med Chem Lett, 2016).

Columns and labels:
[1] = target: Vascular endothelial growth factor receptor 2 (Homo sapiens) (UniProt P35968); assay: Inhibition of VEGFR2 (unknown origin) at 10 uM
[2] = target: Angiopoietin-1 receptor (Homo sapiens) (UniProt Q02763); assay: Inhibition of TIE2 (unknown origin) at 10 uM
[3] = target: T1, Mitogen-activated protein kinase 8 (Homo sapiens, UniProt P45983); assay: Inhibition of JNK1 (unknown origin) expressed in HEK293 cells assessed as anisomycin-induced IRS-1(Ser307) phosphorylation at 10 uM incubated for 30 mins by Western blot analysis relative to anisomycin; assay type: cell-based; design: scale not given: the % may be the effect or the level left
T1 sequence (P45983 whole entry): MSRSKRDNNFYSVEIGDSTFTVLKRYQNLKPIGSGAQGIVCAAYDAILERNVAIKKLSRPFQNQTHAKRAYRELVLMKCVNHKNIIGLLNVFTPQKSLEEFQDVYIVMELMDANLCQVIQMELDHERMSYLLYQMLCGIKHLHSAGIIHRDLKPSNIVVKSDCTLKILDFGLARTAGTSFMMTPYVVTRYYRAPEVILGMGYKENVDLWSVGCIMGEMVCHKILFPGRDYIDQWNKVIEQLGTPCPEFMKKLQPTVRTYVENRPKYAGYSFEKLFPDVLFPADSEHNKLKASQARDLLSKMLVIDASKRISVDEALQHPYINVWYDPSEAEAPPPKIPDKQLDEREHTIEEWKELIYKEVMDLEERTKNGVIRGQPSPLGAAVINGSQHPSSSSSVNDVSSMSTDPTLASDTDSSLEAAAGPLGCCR

[4] = target: Serine/threonine-protein kinase PAK 1 (Homo sapiens) (UniProt Q13153); assay: Inhibition of PAK1 (unknown origin) at 10 uM
[5] = target: Serine/threonine-protein kinase mTOR (Homo sapiens) (UniProt P42345); assay: Inhibition of mTOR (unknown origin) at 10 uM
[6] = target: T2, Aurora kinase A (Homo sapiens) (UniProt O14965); assay: Inhibition of AurA (unknown origin) at 10 uM
T2 sequence (whole entry): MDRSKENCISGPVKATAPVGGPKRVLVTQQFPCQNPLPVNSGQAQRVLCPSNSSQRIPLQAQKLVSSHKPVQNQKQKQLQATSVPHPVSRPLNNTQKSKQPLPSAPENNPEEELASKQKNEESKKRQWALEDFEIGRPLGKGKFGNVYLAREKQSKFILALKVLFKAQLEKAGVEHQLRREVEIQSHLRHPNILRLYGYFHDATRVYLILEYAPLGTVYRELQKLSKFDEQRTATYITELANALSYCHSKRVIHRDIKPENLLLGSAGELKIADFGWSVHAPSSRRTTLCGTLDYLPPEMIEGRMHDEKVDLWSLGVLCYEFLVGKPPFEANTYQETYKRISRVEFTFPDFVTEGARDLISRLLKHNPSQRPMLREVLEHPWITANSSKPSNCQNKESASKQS

[7] = target: Insulin receptor (Homo sapiens) (UniProt P06213); assay: Inhibition of INSR (unknown origin) at 10 uM
[8] = target: Receptor-type tyrosine-protein kinase FLT3 (Homo sapiens) (UniProt P36888); assay: Inhibition of FLT3 (unknown origin) at 10 uM
[9] = target: Proto-oncogene tyrosine-protein kinase receptor Ret (Homo sapiens) (UniProt P07949); assay: Inhibition of RET (unknown origin) at 10 uM
Sequence of Proto-oncogene tyrosine-protein kinase receptor Ret (Homo sapiens) (P07949 whole entry): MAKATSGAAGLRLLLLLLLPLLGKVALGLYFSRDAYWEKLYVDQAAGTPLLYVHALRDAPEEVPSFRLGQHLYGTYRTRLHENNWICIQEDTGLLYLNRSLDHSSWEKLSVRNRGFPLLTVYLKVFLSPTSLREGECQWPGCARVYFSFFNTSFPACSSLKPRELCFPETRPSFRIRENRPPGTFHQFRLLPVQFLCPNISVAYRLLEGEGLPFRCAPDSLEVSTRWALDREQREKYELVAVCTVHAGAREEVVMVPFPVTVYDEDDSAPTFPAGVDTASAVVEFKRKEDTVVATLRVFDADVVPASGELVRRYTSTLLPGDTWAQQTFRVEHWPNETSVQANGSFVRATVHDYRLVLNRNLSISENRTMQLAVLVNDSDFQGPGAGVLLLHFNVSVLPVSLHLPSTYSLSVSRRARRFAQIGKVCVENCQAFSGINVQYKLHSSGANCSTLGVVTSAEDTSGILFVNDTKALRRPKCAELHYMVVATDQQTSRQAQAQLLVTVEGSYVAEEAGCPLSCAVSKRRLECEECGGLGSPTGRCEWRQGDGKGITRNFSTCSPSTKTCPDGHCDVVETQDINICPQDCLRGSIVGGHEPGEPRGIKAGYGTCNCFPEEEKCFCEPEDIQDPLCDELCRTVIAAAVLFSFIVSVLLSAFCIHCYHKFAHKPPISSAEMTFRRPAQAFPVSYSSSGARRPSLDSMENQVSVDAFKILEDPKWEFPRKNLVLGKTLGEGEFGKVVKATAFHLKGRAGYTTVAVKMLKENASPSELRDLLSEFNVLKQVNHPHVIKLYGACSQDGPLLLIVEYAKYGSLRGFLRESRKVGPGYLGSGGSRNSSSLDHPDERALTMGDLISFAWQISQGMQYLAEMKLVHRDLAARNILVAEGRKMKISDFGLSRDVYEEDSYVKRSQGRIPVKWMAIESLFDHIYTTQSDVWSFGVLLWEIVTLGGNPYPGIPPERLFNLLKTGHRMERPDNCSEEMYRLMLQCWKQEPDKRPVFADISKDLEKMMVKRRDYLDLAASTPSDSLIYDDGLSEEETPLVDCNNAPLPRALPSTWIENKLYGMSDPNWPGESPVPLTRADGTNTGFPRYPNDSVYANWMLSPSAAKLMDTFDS

[10] = target: Receptor tyrosine-protein kinase erbB-2 (Homo sapiens) (UniProt P04626); assay: Inhibition of ERBB2 (unknown origin) at 10 uM
[11] = target: Cyclin-dependent kinase 4/cyclin D1 (Homo sapiens) (UniProt P11802+P24385); assay: Inhibition of CDK4/cyclin D1 (unknown origin) at 10 uM; assay type: protein-complex assay
[12] = target: Serine/threonine-protein kinase PAK 4 (Homo sapiens) (UniProt O96013); assay: Inhibition of PAK4 (unknown origin) at 10 uM
[13] = target: Serine/threonine-protein kinase B-raf (Homo sapiens) (UniProt P15056); assay: Inhibition of B-RAF (unknown origin) at 10 uM
[14] = target: Protein kinase C alpha type (Homo sapiens) (UniProt P17252); assay: Inhibition of PKCalpha (unknown origin) at 10 uM
[15] = target: Tyrosine-protein kinase receptor UFO (Homo sapiens) (UniProt P30530); assay: Inhibition of AXL (unknown origin) at 10 uM
Sequence of Tyrosine-protein kinase receptor UFO (Homo sapiens) (P30530 whole entry): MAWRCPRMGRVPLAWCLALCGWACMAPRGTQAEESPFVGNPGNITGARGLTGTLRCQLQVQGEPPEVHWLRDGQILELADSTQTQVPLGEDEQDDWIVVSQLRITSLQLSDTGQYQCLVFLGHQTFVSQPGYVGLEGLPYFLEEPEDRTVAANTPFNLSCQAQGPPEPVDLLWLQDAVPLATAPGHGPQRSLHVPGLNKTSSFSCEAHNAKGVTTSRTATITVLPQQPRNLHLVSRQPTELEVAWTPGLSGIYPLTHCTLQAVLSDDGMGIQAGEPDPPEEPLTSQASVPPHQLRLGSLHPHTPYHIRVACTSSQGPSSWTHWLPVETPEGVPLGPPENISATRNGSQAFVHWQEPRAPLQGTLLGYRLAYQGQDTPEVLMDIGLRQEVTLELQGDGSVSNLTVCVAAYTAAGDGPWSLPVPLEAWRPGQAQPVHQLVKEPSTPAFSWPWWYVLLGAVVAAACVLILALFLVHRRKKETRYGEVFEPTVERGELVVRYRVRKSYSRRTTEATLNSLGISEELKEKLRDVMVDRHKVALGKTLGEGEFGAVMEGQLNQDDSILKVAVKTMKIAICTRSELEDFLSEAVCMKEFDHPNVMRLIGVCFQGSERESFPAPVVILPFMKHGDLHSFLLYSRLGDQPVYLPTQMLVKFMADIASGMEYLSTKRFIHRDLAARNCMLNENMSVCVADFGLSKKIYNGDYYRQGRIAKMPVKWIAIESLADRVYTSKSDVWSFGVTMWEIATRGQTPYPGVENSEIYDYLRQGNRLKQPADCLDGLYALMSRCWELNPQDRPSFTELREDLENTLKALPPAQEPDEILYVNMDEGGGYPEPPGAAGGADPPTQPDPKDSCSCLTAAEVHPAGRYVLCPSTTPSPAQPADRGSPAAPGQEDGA

[16] = target: Tyrosine-protein kinase CSK (Homo sapiens) (UniProt P41240); assay: Inhibition of CSK (unknown origin) at 10 uM
[17] = target: T3, Inhibitor of nuclear factor kappa-B kinase subunit beta (Homo sapiens) (UniProt O14920); assay: Inhibition of IKKbeta (unknown origin) at 10 uM
T3 sequence (whole entry): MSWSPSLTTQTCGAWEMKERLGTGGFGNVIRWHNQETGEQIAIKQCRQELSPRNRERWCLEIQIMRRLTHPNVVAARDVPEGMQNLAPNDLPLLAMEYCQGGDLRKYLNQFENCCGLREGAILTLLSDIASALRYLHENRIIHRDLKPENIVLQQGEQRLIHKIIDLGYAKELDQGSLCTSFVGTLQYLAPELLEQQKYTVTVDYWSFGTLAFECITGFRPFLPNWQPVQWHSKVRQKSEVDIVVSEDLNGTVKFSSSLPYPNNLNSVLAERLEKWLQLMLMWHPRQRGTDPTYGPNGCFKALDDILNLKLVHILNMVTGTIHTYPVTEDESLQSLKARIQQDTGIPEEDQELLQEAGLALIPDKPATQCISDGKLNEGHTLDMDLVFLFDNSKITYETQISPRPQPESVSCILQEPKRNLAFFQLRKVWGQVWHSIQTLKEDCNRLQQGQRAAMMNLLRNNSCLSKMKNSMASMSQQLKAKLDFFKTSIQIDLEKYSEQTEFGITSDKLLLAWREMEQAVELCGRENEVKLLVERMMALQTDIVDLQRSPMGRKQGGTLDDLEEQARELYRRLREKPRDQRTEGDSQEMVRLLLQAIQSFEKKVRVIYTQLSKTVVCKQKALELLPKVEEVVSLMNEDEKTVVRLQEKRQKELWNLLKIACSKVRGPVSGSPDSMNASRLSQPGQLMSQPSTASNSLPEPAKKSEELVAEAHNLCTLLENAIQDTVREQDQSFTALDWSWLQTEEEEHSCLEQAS

[18] = target: Serine/threonine-protein kinase pim-1 (Homo sapiens) (UniProt P11309); assay: Inhibition of PIM1 (unknown origin) at 10 uM
[19] = target: Serine/threonine-protein kinase PLK3 (Homo sapiens) (UniProt Q9H4B4); assay: Inhibition of PLK3 (unknown origin) at 10 uM
[20] = target: Platelet-derived growth factor receptor beta (Homo sapiens) (UniProt P09619); assay: Inhibition of PDGFRbeta (unknown origin) at 10 uM
[21] = target: T1, Mitogen-activated protein kinase 8; assay: Inhibition of JNK1 (unknown origin) expressed in HEK293 cells assessed as anisomycin-induced JNK phosphorylation at 10 uM incubated for 30 mins by Western blot analysis relative to anisomycin; assay type: cell-based; design: scale not given: the % may be the effect or the level left
[22] = target: Rho-associated protein kinase 2 (Homo sapiens) (UniProt O75116); assay: Inhibition of ROCK2 (unknown origin) at 10 uM
[23] = target: T1, Mitogen-activated protein kinase 8; assay: Inhibition of JNK1 (unknown origin) at 10 uM
[24] = system: HEK293; assay: Cytotoxicity against HEK293 after 24 hrs by CellTiter-Glo luminescent cell viability assay; assay type: cell-based; details: Homo sapiens, HEK293, 24 h

Sequence of Angiopoietin-1 receptor (Homo sapiens) (Q02763 whole entry): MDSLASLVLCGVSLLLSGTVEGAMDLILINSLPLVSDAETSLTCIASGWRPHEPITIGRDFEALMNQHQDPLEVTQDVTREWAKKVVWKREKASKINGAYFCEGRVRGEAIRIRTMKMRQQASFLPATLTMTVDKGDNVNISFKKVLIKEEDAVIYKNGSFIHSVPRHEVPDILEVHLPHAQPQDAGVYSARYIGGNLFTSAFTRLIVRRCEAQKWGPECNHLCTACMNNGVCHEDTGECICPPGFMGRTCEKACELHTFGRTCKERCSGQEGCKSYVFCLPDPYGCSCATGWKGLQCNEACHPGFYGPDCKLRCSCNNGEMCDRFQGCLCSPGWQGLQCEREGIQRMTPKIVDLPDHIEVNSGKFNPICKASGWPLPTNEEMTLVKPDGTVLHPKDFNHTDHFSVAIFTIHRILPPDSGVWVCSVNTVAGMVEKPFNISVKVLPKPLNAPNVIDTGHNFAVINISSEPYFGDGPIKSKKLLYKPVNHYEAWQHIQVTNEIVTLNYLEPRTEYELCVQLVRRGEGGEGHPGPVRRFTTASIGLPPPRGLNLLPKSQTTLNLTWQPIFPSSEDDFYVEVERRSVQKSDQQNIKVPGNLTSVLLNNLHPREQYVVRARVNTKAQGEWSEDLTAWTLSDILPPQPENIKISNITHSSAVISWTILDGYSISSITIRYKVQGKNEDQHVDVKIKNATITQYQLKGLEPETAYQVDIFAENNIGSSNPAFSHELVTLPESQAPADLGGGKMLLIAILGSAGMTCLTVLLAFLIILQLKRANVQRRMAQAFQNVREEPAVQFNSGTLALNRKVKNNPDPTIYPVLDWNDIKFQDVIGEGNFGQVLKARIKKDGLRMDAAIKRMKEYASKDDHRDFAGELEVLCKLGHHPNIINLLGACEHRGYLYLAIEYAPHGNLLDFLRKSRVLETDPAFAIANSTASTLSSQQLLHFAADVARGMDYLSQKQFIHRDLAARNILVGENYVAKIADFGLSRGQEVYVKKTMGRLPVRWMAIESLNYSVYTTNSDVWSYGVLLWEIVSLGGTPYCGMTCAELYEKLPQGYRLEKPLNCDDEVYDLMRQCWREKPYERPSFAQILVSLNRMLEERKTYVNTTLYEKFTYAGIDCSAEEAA
Sequence of Vascular endothelial growth factor receptor 2 (Homo sapiens) (P35968 whole entry): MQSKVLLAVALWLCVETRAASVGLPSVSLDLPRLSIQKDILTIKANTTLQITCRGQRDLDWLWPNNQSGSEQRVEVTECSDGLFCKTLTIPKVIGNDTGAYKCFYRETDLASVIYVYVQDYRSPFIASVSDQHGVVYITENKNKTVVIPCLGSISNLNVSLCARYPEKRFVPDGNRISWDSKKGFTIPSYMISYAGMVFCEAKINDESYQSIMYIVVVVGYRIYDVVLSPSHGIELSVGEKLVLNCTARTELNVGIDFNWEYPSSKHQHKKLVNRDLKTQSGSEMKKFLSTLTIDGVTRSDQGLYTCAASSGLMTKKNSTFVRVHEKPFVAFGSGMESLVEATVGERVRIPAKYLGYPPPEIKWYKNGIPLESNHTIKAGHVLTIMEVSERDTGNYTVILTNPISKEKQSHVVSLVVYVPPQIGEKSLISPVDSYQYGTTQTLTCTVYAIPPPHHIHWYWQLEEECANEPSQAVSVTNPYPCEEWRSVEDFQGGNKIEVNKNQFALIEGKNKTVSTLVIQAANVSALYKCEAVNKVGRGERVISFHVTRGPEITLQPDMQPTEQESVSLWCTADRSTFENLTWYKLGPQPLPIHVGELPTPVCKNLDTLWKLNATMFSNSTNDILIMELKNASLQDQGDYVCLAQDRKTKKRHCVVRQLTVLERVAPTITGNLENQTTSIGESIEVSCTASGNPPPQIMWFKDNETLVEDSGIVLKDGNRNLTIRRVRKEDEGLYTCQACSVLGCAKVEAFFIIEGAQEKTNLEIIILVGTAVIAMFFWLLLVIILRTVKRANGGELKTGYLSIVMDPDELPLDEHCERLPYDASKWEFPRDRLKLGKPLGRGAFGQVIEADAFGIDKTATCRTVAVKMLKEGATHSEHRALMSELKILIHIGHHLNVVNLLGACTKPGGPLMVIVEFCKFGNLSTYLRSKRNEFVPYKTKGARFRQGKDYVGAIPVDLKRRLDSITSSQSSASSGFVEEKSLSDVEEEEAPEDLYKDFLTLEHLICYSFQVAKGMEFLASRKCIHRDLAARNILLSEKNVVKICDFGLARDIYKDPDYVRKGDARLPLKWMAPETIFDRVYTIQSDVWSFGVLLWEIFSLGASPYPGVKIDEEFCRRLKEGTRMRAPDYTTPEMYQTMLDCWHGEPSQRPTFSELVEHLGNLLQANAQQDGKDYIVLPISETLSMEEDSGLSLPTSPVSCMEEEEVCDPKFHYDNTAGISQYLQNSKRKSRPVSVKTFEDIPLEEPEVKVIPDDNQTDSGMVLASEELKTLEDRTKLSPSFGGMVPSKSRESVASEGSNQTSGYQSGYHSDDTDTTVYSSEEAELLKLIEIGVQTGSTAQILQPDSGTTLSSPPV

Row | Compound | inhibition [1] [%] | inhibition [2] [%] | Activity [3] [%] | inhibition [4] [%] | inhibition [5] [%] | inhibition [6] [%] | inhibition [7] [%] | inhibition [8] [%] | inhibition [9] [%] | inhibition [10] [%] | inhibition [11] [%] | inhibition [12] [%] | inhibition [13] [%] | inhibition [14] [%] | inhibition [15] [%] | inhibition [16] [%] | inhibition [17] [%] | inhibition [18] [%] | inhibition [19] [%] | inhibition [20] [%] | other results
1 | Cn1c(=O)c(Oc2ccc(F)cc2F)cc2cnc(NCCc3ccccn3)nc21 | 3 | 0 | 82 | 0 | 15 | 4 | 2 | 5 | 11 | 19 | 17 | 22 | 35 | 8 | 0 | 6 | 6 | 3 | 0 | 6 | Activity [21]: 82%; inhibition [22]: 3%; inhibition [23]: 55%; IC50 [24]: > 30 µM
2 | CN1CCN(c2ccc(Nc3ncc4cc(Oc5c(Cl)cccc5Cl)c(=O)n(C)c4n3)cc2)CC1 | 24 | 3 | 13.2 | 4 | 7 | 12 | 0 | 6 | 43 | 42 | 61 | 18 | 50 | 8 | 0 | 8 | 0 | 13 | 0 | 41 | Activity [21]: 45%; inhibition [22]: 3%; inhibition [23]: 34%; IC50 [24]: > 22.6 µM
3 | Cn1c(=O)c(Oc2c(Cl)cccc2Cl)cc2cnc(NC3CCOCC3)nc21 | 1 | 0 | 8.05 | 0 | 24 | 3 | 2 | 3 | 2 | 11 | 16 | 14 | 7 | 5 | 0 | 4 | 3 | 0 | 0 | 0 | Activity [21]: 55.2%; inhibition [22]: 4%; inhibition [23]: 67%; IC50 [24]: > 30 µM
4 | CN1CCN(c2ccc(Nc3ncc4cc(Oc5ccc(F)cc5F)c(=O)n(C)c4n3)cc2)CC1 | 98 | 5 | 2.08 | 6 | 0 | 54 | 5 | 6 | 98 | 74 | 61 | 0 | 53 | 12 | 9 | 20 | 5 | -4 | 1 | 100 | Activity [21]: 133%; inhibition [22]: 14%; inhibition [23]: 64%; IC50 [24]: > 30 µM
5 | Cn1c(=O)c(Oc2ccc(F)cc2F)cc2cnc(Nc3ccc(N4CCCCC4)cc3)nc21 | 20 | 4 | 84 | 3 | 33 | 14 | 5 | 8 | 46 | 26 | 22 | 29 | 9 | 14 | 6 | 15 | 13 | 24 | 29 | 39 | Activity [21]: 149%; inhibition [22]: 5%; inhibition [23]: 13%; IC50 [24]: > 30 µM

More lines, main results first:

Row | inhibition [1] [%] | inhibition [2] [%] | Activity [3] [%] | inhibition [4] [%] | inhibition [5] [%] | inhibition [6] [%] | inhibition [7] [%] | inhibition [8] [%] | inhibition [9] [%] | inhibition [10] [%] | inhibition [11] [%] | inhibition [12] [%] | inhibition [13] [%] | inhibition [14] [%] | inhibition [15] [%] | inhibition [16] [%] | inhibition [17] [%] | inhibition [18] [%] | inhibition [19] [%] | inhibition [20] [%] | Compound | other results
6 | 24 | 2 | 2.72 | 8 | 19 | 32 | 2 | 0 | 0 | 0 | 62 | 5 | 49 | 10 | 8 | 5 | 4 | 5 | 0 | 12 | Cn1c(=O)c(Oc2ccc(F)cc2F)cc2cnc(NC3CCN(S(C)(=O)=O)CC3)nc21 | Activity [21]: 77.2%; inhibition [22]: 6%; inhibition [23]: 93%; IC50 [24]: > 30 µM
7 | 30 | 0 | 0 | 0 | 9 | 6 | 2 | 0 | 24 | 23 | 6 | 2 | 13 | 13 | 4 | 4 | 6 | 0 | 0 | 29 | CN1CCN(CCCNc2ncc3cc(Oc4ccc(F)cc4F)c(=O)n(C)c3n2)CC1 | Activity [21]: 153%; inhibition [22]: 3%; inhibition [23]: 20%; IC50 [24]: > 30 µM
8 | 1 | 0 | 104 | 0 | 5 | 7 | 0 | 4 | 1 | 8 | 17 | 20 | 9 | 0 | 0 | 5 | 3 | 1 | 0 | 5 | CN(C)CCNc1ncc2cc(Oc3ccc(F)cc3F)c(=O)n(C)c2n1 | Activity [21]: 104%; inhibition [22]: 2%; inhibition [23]: 3%; IC50 [24]: > 30 µM
